Article PMC7822874, “Chemoprotective antimalarials identified through quantitative high-throughput screening of Plasmodium blood and liver stage parasites” (Scientific Reports, 2021)
Where two headings read alike, the source gives them in different places.

How the values were obtained:
[1] = system: Plasmodium falciparum Dd2 asexual blood stage parasites; assay: microbe, parasite or virus in culture; design: species or system Plasmodium falciparum Dd2 in human erythrocytes; single determination (one 11-point concentration-response curve); settings: Plasmodium falciparum, DD2, Erythrocyte, 72 h; read-out: AC50
[2] = system: luciferase-expressing P. berghei liver stage parasites in HepG2 cells; assay: Inhibition of liver-stage development assay (ILSDA), Method 2 (WRAIR, 96-well); format: cell-based, Plasmodium berghei; settings: for AC50: Plasmodium berghei; for Activity direction (Decrease / Inactive): P. berghei liver stage
[3] = system: P. berghei-ANKA-GFP-LucCON liver stage parasites in HepG2-A16-CD81EGFP cells; assay: P. berghei liver stage Pb-Luc assay, Method 1 (UCSD, 1536-well); format: cell-based, Plasmodium berghei; settings: Method 1
[4] = HepG2, P. berghei liver stage, Method 2, dose response, read-out: AC50
[5] = HepG2, P. berghei liver stage, Method 2, dose response, read-out: Log AC50 (converted)

Structure (SMILES) | Activity direction (Decrease / Inactive) ([2]; Method 2, dose response) | AC50 [2, 4] [nM] | AC50 [2, 5] [nM] | other results
COc1ccc(-n2nc(C)c([C@@H]3C=C[C@@H](NCc4ccc(N(C)C)cc4)C3)c2C)cc1 [NCGC00394616-01] |  |  |  | AC50 [1]: 4330 nM; Max Resp (signal direction of the dose response) ([2]; Method 2, Decrease = decreasing P. berghei viability with dose, Increase = increasing signal, Inactive = no dose response): Decrease; AC50 ([2]; HepG2, Method 2, Hill fit, 50% of maximum activity response, read-out: AC50): 2820 nM; AC50 ([2]; HepG2, Method 2, log10 of molar AC50 from Hill fit, read-out: Log AC50 (converted)): 2820 nM; Max Resp (signal direction of the dose response) ([3]; Decrease = decreasing P. berghei viability with dose, Increase = increasing signal, Inactive = no dose response): Decrease; AC50 ([3]; Hill fit, 50% of maximum activity response, read-out: AC50): 1580 nM; Log AC50 (M) ([3]; log10 of molar AC50 from Hill fit): -5.800 M; AC50 ([3]; Plasmodium berghei, Hill fit, 50% of maximum activity response, read-out: AC50): 1410 nM; AC50 ([3]; Plasmodium berghei, log10 of molar AC50 from Hill fit, read-out: Log AC50 (converted)): 1410 nM
N#Cc1cccc(CN2CC(CNc3ccccc3)C3(C2)CN(c2ccccc2)C3)c1 (stereo not drawn) [NCGC00415808-01] | Decrease | 2240 | 2240 | 
CC(C)c1ccc(CN2CC(CNc3cccnc3)C3(C2)CN(c2ccccc2)C3)cc1 (stereo not drawn) [NCGC00415809-01] | Inactive |  |  | AC50 [1]: 4850 nM
c1ccc(OCC2CN(Cc3ccc4[nH]ccc4c3)CC23CN(c2ccccc2)C3)cc1 (stereo not drawn) [NCGC00415812-01] | Inactive |  |  | 
O=C(O)c1cccc(CN2CC(CNC(=O)c3ccccc3)C3(C2)CN(c2ccccc2)C3)c1 (stereo not drawn) [NCGC00415857-01] | Decrease | 891 | 891 | 
O=C(NCC1CN(C(=O)Cc2cccc(OC(F)(F)F)c2)CC12CN(c1ccccc1)C2)c1ccccc1 (stereo not drawn) [NCGC00415900-01] | Inactive |  |  | 
CC(C)CCN1CC(CN[S+](=O)([O-])c2ccccc2)C2(C1)CN(c1ccccc1)C2 (stereo not drawn) [NCGC00415920-01] | Decrease | 2820 | 2820 | 
Oc1ccccc1CN1CC(CNc2cccnc2)C2(C1)CN(c1ccccc1)C2 (stereo not drawn) [NCGC00415924-01] | Inactive |  |  | AC50 [1]: 10900 nM
O=[S+]([O-])(NCC1CN(Cc2ccc(O)cc2)CC12CN(c1ccccc1)C2)c1ccccc1 (stereo not drawn) [NCGC00415939-01] | Inactive |  |  | AC50 [1]: 6680 nM
c1ccc(NCC2CN(Cc3ccccn3)CC23CN(c2ccccc2)C3)cc1 (stereo not drawn) [NCGC00415982-01] | Inactive |  |  | 
Clc1cnccc1CN1CC(CNc2ccccc2)C2(C1)CN(c1ccccc1)C2 (stereo not drawn) [NCGC00416018-01] | Inactive |  |  | AC50 [1]: 13700 nM
CC(=O)N1CCN(C(=O)c2ccc3c(c2)NC(C)(COc2ccc4[nH]ccc4c2)CO3)CC1 (stereo not drawn) [NCGC00416302] | Inactive |  |  | 
Cc1nc2c(c(N3CCCC(COc4cccc(F)c4)C3)n1)CCNCC2 (stereo not drawn) [NCGC00440030-01] | Inactive |  |  | AC50 [1]: 8410 nM
O=c1[nH]c(N2CCOCC2)nc2c1CCN(Cc1cc(Cl)ccc1F)CC2 [NCGC00440651] | Decrease | 200 | 200 | 
CCCN1C(CC(C)C)=N[S+](=O)([O-])c2cc(NC(=O)C(C)C)ccc21 [NCGC00473220-01] | Decrease | 1120 | 1120 | 
CC(=O)Nc1ccc2c(c1)[S+](=O)([O-])N=C(CC(C)C)N2CC(C)C [NCGC00473311-01] | Inactive |  |  | 
CC(C)C1=N[S+](=O)([O-])c2cc(NC(=O)c3ccco3)ccc2N1c1ccccc1 [NCGC00473412-01] | Inactive |  |  | 
CCC(C)C1=N[S+](=O)([O-])c2cc(NC(=O)c3ccco3)ccc2N1c1ccccc1 (stereo not drawn) [NCGC00473608-01] | Decrease | 3980 | 3980 | 
CC(=O)Nc1ccc2c(c1)[S+](=O)([O-])N=C(CC(C)C)N2c1ccccc1 [NCGC00475154-01] | Inactive |  |  | 
CC(C)CC1=N[S+](=O)([O-])c2cc(NC(=O)C3CC3)ccc2N1c1ccccc1 [NCGC00475156-01] | Decrease | 3160 | 3160 | 
CCC1=N[S+](=O)([O-])c2cc(NC(=O)C3CC3)ccc2N1CC(C)C [NCGC00475158-01] | Inactive |  |  | 
